In patent US7141606B2, “Gabapentin analogues for sleep disorders” (Warner-Lambert Company, priority 2000, dated 2006):

Test system: Male Sprague-Dawley rats
Assay: EEG/EMG sleep recording in rats: time in NREMS for 12 hours after PO dosing
Assay type: in vivo, rat
Settings: for Total Minutes (Mean ± SEM) NREMS for 12-Hour Postinjection: rats, N = 8/Treatment, just prior to onset of light phase
Description: Male Sprague-Dawley rats weighing 250 to 360 g were used for the experiment. The rats were kept on a 12:12-hr light/dark cycle (lights on at 0900) at 23±1° C. ambient temperature. They had free access water and food during the experiment. Stainless steel jewelry screws for EEG recording were placed over the frontal and parietal cortices. An EMG electrode was implanted in the dorsal neck muscles.
Recording and analyses. After the recovery period (at least 1 week), rats were moved to sleep recording chambers. The rats were allowed relatively unrestricted movement inside the recording cages. A flexible tether connected the electrodes led to an electronic swivel. The leads from the swivel were routed to Grass Model No. 7D polygraphs in an adjacent room for recording EEG and EMG activity. The vigilance states of wakefulness, nonrapid-eye-movement sleep (NREMS), and rapid-eye-movement sleep (REMS) were determined offline in 10 second epochs. The amount of time spent in each vigilance state was calculated every hour and totaled for the 12-hour period post injection. Drug or vehicle were administered PO just prior to the onset of the light phase of the rat's light/dark cycle. Each rat received a vehicle and one drug dose. Results

| SMILES | Total Minutes (Mean ± SEM) NREMS for 12-Hour Postinjection (3 mg/kg PO) [min] | Total Minutes (Mean ± SEM) NREMS for 12-Hour Postinjection (10 mg/kg PO) [min] | Total Minutes (Mean ± SEM) NREMS for 12-Hour Postinjection (30 mg/kg PO) [min] | Effect on NREMS in rats during the 12-hour period following injection (rats, 3, 10, and 30 mg/kg PO) | Total Minutes (Mean ± SEM) NREMS for 12-Hour Postinjection (1 mg/kg PO) [min] | Effect on NREMS in rats during the 12-hour period following injection (rats, 1, 3, and 20 mg/kg PO) |
| --- | --- | --- | --- | --- | --- | --- |
| C[C@H]1CC(CN)(CC(=O)O)C[C@@H]1C [Compound 1] | 401 ± 8 | 409 ± 12 | 424 ± 6 | significantly increased NREMS | – | – |
| CCC[C@@H](C)C[C@H](CN)CC(=O)O [Compound 2, (3S, 5R)-3-Aminomethyl-5-methyl-octanoic acid] | 451 ± 9 | 481 ± 6 | – | – | 432 ± 8 | significantly increased NREMS |
